Reference: publication PMC12070228, “Investigations of Enteric-Coated Tablet Propyl Gallate-Induced Nephrotoxicity in Beagles as well as Human and Dog Renal Proximal Tubule Epithelial Cells” (ACS Pharmacology & Translational Science, 2025)
pEC50: −log10 of the molar value.

Tests used:
[1] = test system: beagles; test: Follow-up 4-week study 003: EC tablets vs PG alone in gelatin capsule, nephrotoxicity; format: in vivo, beagle dog; details: dogs, target PG 200 mg/kg/day once daily for 26 days, data not shown
[2] = test system: dog RPTECs; test: Cell Titer Glo cell viability assay; format: cell-based
Description: (§1) Frozen RPTECs vials were removed from liquid nitrogen storage and placed in a 37 °C water bath until the contents were completely thawed. The cells were gently resuspended and dispensed into a cell culture flask at a seeding density of ∼7500 cells/cm^2. The flask was placed in a 37 °C, 5% CO2 incubator. Cell cultures were given fresh medium the following morning and then every other day until the cell culture was approximately 90% confluent. When the cell culture was 90% confluent, medium was removed and the cells were rinsed with warmed PBS. Cells were harvested and split into new flasks based on a cell density of 7500 cells/cm^2. Cells were incubated at 37 °C for 3 days, with fresh medium added each day. Cells were harvested and diluted with growth medium to a density of 200,000 cells/mL. 100 μL of cell suspension per well (20,000 cells/well) was added to a clear-bottom 96-well microplate for luminescence assays. The plated cells were incubated in the 37 °C incubator for 3 days.
(§2) Each test compound (PG, GA, 4OMPG and 4OMGA) was initially reconstituted using DMSO at a concentration of 250 mg/mL. Serial dilutions of each compound were performed to reach concentrations of 4000 μM, 2000 μM, 1000 μM, 500 μM, 250 μM, 125 μM, 62.5 μM, 31.3 μM using warmed fresh supplemented medium with 0.4% (v/v) DMSO for all concentration levels. 100 μL of media containing the compound solution was added to the cells. Final concentrations of the compounds were 2000 μM, 1000 μM, 500 μM, 250 μM, 125 μM, 62.5 μM, 31.3 μM, 15.7 μM. […]
(§3) Cell media were removed and cells were washed twice with 200 μL of PBS buffer per well. […] The plate was gently shaken and incubated in the dark for 30 min and luminescence was measured using a PerkinElmer VICTOR X3 plate reader. […] Luminescence was measured using a PerkinElmer VICTOR X3 plate reader.
(§4) For cell-based assays, data was normalized to the negative control. Cell viability and GSH level were expressed as Cell viability or GSH level=Luminescence(each well)/Luminescence(average of DMSO negative control)

[3] = test system: human RPTECs; test: Cell Titer Glo cell viability assay; format: cell-based; details: RPTEC, 48 h exposure, estimated
Description: as §1, §2, §3, §4

[4] = Exposure comparison of PG and phase-I and phase-II metabolites in dog and human plasma; details: oral EC MEDI7219 tablets; samples through 8 h; human PG 800 mg (N = 8), dog PG 200 mg/kg/day (N = 6)
Description: Dog blood was collected via jugular vein in potassium (K2) EDTA tubes and processed to plasma. Samples were centrifuged at approximately 3000 rpm for 5 min at approximately 4 °C within 30 min of collection. Plasma samples were acidified with 1% (v/v) formic acid (FA) to avoid degradation of PG and metabolites in plasma within 20 min of the start of centrifugation and then stored frozen (≤-60 °C). Acidified plasma was extracted using internal standard-spiked solution (100 mM ammonium bicarbonate: acetonitrile = 1:4). Samples were then centrifuged to collect supernatant, followed by drying to completion. The dried samples were reconstituted with 200 uL of 0.1% (v/v) formic acid in water. Samples were vortexed and centrifuged before injection. In order to assess potential impact of hemolysis on qualification of PG and its metabolites, hemolyzed plasma was prepared by spiking fully hemolyzed whole blood at an indicated percentage into plasma.
Separations were conducted on a reversed-phase column (Phenomenex, Kinetex F5, 2.6 μm 100 Å, 100 × 4.6 mm) at a flow rate of 0.7 mL/min at 40 °C. Mobile phase A was 0.1% formic acid in water and mobile phase B was 0.1% formic acid in methanol. The samples were analyzed on a SCIEX 6500+ QTRAP under negative ESI mode. The total run time was 5.5 min. Eight calibration standards and three quality control (LQC, MQC and HQC) samples were used for quantification.
The primary metabolites of PG were measured in dog and human plasma following oral administration of EC MEDI7219 tablets to examine a potential mechanism of the PG-mediated renal toxicity in dog and its possible translatability to humans. Plasma concentrations of PG, its phase-I metabolites GA and 4OMGA and phase-II glucuronide and glutathione conjugates were measured. The human and dog samples, collected through 8 h after administration, were analyzed and the results were compared (Figure , Figure S5). Based on allometric scaling method the highest daily dose administered in humans was approximately 8-fold less compared with the dose level tested in dogs.
Human (H) data is in black. Dog (D) data is in red (study 002). Concentration (mM) is in log10 scale. Data was normalized to PG dose (mg/kg/day). N = 8 for human (PG dosed at 800 mg with MEDI7219 tablets). N = 6 for dogs (PG dosed at 200 mg/kg/day). Below LLOQ values were set to 1/2 LLOQ for the calculation.

CCCOC(=O)c1cc(O)c(O)c(O)c1 [PG, propyl gallate]
Nephrotoxicity / kidney injury [1]: did not result in nephrotoxicity
pEC50 ([2]; Canis lupus familiaris, RPTEC, dog RPTECs, 48 h exposure, estimated): ~4.33
Relative difference in sensitivity between human and dog RPTECs ([2]; human EC50 vs dog EC50, cell viability): ~33 fold
pEC50 [3]: ~2.82
Plasma exposure, humans compared with dogs [4]: comparable between the two species
